Results reported in EPA's ToxRefDB 2.

How the values were obtained:
rat [1] = settings: Carcinogenicity, wistar, Oral, Feed, dose end: 104 week, group: systemic
rat [2] = settings: Chronic toxicity, wistar, Oral, Feed, dose end: 12 month, group: systemic
dog [3] = settings: Subchronic oral toxicity in nonrodent, beagle, Feed, dose end: 90 day, group: systemic, systemic / clinical chemistry / alanine aminotransferase (alt/sgpt) / alanine aminotransferase (alt/sgpt) + systemic / clinical chemistry / …
rat [4] = settings: Subchronic oral toxicity in rodents, wistar, Feed, dose end: 90 day, group: systemic
rabbit [5] = settings: Prenatal developmental toxicity study, himalayan, Oral, Gavage/Intubation, dose end: 19 GD
rat [6] = settings: Prenatal developmental toxicity study, sprague dawley, Oral, Gavage/Intubation, dose end: 18 GD
rabbit [7] = settings: Prenatal developmental toxicity study; himalayan; Oral; Gavage/Intubation; dose end: 18 GD; group: maternal; systemic / in life observation / body weight / body weight gain + systemic / in life observation / food consumption / food consumption
rabbit [8] = settings: Prenatal developmental toxicity study, himalayan, Oral, Gavage/Intubation, dose end: 18 GD
dog [9] = settings: Sub-acute repeat dose toxicity, beagle, Oral, Gavage/Intubation, dose end: 4 week, group: systemic
mouse = settings: Subchronic oral toxicity in rodents, cd1, Gavage/Intubation, dose end: 90 day, group: systemic
rat [10] = settings: Prenatal developmental toxicity study, sprague dawley, Oral, Gavage/Intubation, dose end: 18 GD; remark: listed apart in the source
rat [11] = settings: Sub-acute repeat dose toxicity, sprague dawley, Oral, Gavage/Intubation, dose end: 4 week, group: systemic
[12] = systemic / pathology gross / lymph node / enlarged
[13] = systemic / pathology microscopic / stomach / edema + systemic / pathology microscopic / stomach / hyperkeratosis + systemic / pathology …
[14] = systemic / pathology gross / liver / foci
[15] = systemic / pathology gross / liver / foci + systemic / pathology gross / stomach / thickened + systemic / pathology microscopic / liver / …
[16] = systemic / pathology microscopic / kidney / hyaline droplet + systemic / pathology microscopic / kidney / protein + systemic / pathology …
[17] = systemic / pathology microscopic / stomach / hyperkeratosis + systemic / pathology microscopic / liver / hypertrophy + systemic / pathology …
[18] = group: developmental, developmental / developmental malformation / bone / [other] + developmental / developmental malformation / bone / fused + developmental / …
[19] = group: developmental, systemic / in life observation / body weight / fetal weight
[20] = group: maternal, systemic / in life observation / body weight / body weight gain
[21] = group: maternal, systemic / in life observation / body weight / body weight + systemic / in life observation / food consumption / food consumption
[22] = group: developmental, developmental / developmental malformation / bone / delayed ossification + developmental / developmental malformation / lung / [other]
[23] = group: developmental, developmental / developmental malformation / bone / delayed ossification + developmental / developmental malformation / lung / [other] + …
[24] = systemic / clinical chemistry / alkaline phosphatase (alp/alk) / alkaline phosphatase (alp/alk) + systemic / hematology / blood clotting / …
[25] = systemic / hematology / blood clotting / blood clotting - prothrombin time + systemic / hematology / reticulocyte / reticulocyte
[26] = systemic / in life observation / body weight / body weight + systemic / organ weight / brain / relative to body weight + systemic / organ …
[27] = systemic / in life observation / body weight / body weight + systemic / organ weight / liver / relative to body weight + systemic / …
[28] = group: developmental, developmental / developmental malformation / bone / incomplete ossification
[29] = group: maternal, systemic / in life observation / body weight / body weight + systemic / in life observation / food consumption / food consumption + systemic…
[30] = systemic / hematology / hematocrit (hct) / hematocrit (hct) + systemic / hematology / hemoglobin (hgb) / hemoglobin (hgb)
[31] = systemic / hematology / hematocrit (hct) / hematocrit (hct) + systemic / hematology / hemoglobin (hgb) / hemoglobin (hgb) + systemic / in …

[Cu+2].[O-]/N=[N+](\[O-])C1CCCCC1.[O-]/N=[N+](\[O-])C1CCCCC1
LEL (rat [1]; [12]): 6 mg/kg/day | NEL (rat [1]; [12]): < 6 mg/kg/day | LOAEL (rat [1]; [13]): 33 mg/kg/day | NOAEL (rat [1]; [13]): 6 mg/kg/day | LEL (rat [2]; [14]): 6.1 mg/kg/day | NEL (rat [2]; [14]): < 6.1 mg/kg/day | LOAEL (rat [2]; [15]): 61 mg/kg/day | NOAEL (rat [2]; [15]): 18.3 mg/kg/day | LEL (dog [3]): 69 mg/kg/day | LOAEL (dog [3]): 69 mg/kg/day | NEL (dog [3]): 26 mg/kg/day | NOAEL (dog [3]): 26 mg/kg/day | LOAEL (rat [4]; [16]): 140 mg/kg/day | NOAEL (rat [4]; [16]): 35 mg/kg/day | LEL (rat [4]; [17]): 125 mg/kg/day | NEL (rat [4]; [17]): < 125 mg/kg/day | LOAEL (rabbit [5]; [18]): 30 mg/kg/day | NOAEL (rabbit [5]; [18]): 10 mg/kg/day | LEL (rabbit [5]; [19]): 10 mg/kg/day | NEL (rabbit [5]; [19]): < 10 mg/kg/day | LEL (rabbit [5]; [20]): 10 mg/kg/day | NEL (rabbit [5]; [20]): < 10 mg/kg/day | LOAEL (rabbit [5]; group: maternal, systemic / in life observation / body weight / body weight gain + systemic / in life observation / food consumption / food consumption): 30 mg/kg/day | NOAEL (rabbit [5]; group: maternal, systemic / in life observation / body weight / body weight gain + systemic / in life observation / food consumption / food consumption + …): 10 mg/kg/day

OC12N=C(c3ccccc3)SC1Cc1cc(Cl)ccc12 (centres undefined) [HMR1426]
LEL (rat [6]; [19]): 1000 mg/kg/day | LOAEL (rat [6]; [19]): 1000 mg/kg/day | NEL (rat [6]; [19]): 500 mg/kg/day | NOAEL (rat [6]; [19]): 500 mg/kg/day | LEL (rat [6]; [21]): 500 mg/kg/day | LOAEL (rat [6]; [21]): 500 mg/kg/day | NEL (rat [6]; [21]): < 500 mg/kg/day | NOAEL (rat [6]; [21]): < 500 mg/kg/day | LEL (rabbit [7]): 500 mg/kg/day | LOAEL (rabbit [7]): > 1000 mg/kg/day | NEL (rabbit [7]): < 500 mg/kg/day | NOAEL (rabbit [7]): ≥ 1000 mg/kg/day | LEL (rabbit [8]; [22]): 62.5 mg/kg/day | NEL (rabbit [8]; [22]): < 62.5 mg/kg/day | LOAEL (rabbit [8]; [23]): > 1000 mg/kg/day | NOAEL (rabbit [8]; [23]): ≥ 1000 mg/kg/day | LEL (rabbit [8]; [21]): 62.5 mg/kg/day | LOAEL (rabbit [8]; [21]): > 1000 mg/kg/day | NEL (rabbit [8]; [21]): < 62.5 mg/kg/day | NOAEL (rabbit [8]; [21]): ≥ 1000 mg/kg/day | LOAEL (dog [9]; [24]): > 630 mg/kg/day | NOAEL (dog [9]; [24]): ≥ 630 mg/kg/day | LEL (dog [9]; [25]): 63 mg/kg/day | NEL (dog [9]; [25]): < 63 mg/kg/day | LOAEL (mouse; [26]): > 1600 mg/kg/day | NOAEL (mouse; [26]): ≥ 1600 mg/kg/day | LEL (mouse; [27]): 400 mg/kg/day | NEL (mouse; [27]): < 400 mg/kg/day | LEL (rat [10]; [28]): 315 mg/kg/day | LOAEL (rat [10]; [28]): 315 mg/kg/day | NEL (rat [10]; [28]): 100 mg/kg/day | NOAEL (rat [10]; [28]): 100 mg/kg/day | LEL (rat [10]; [21]): 100 mg/kg/day | NEL (rat [10]; [21]): < 100 mg/kg/day | LOAEL (rat [10]; [29]): 315 mg/kg/day | NOAEL (rat [10]; [29]): 100 mg/kg/day | LEL (rat [11]; [30]): 31.5 mg/kg/day | NEL (rat [11]; [30]): < 31.5 mg/kg/day | LOAEL (rat [11]; [31]): 315 mg/kg/day | NOAEL (rat [11]; [31]): 31.5 mg/kg/day
